Here are results for twelve molecules from ChEMBL document CHEMBL1153475, “Novel indoline-based acyl-CoA: cholesterol acyltransferase inhibitor: Effects of introducing a methanesulfonamide group on physicochemical properties and biological activities” (Bioorg Med Chem, 2009).

pIC50: −log10 of the molar value.

Data set [1] has as its system THP-1. Put plainly: Anti-foam cell formation activity in human THP1 cells assessed as inhibition of esterified cholesterol accumulation after 24 hrs in presence of Japanese white rabbit high-cholesterol serum. The conditions noted are these: THP-1, 24 h. In kind it is functional, cell-based.
In data set [2] the target is T1, Acyl-CoA:cholesterol acyltransferase (Oryctolagus cuniculus, UniProt Q95214).
T1 sequence (Q95214 whole entry): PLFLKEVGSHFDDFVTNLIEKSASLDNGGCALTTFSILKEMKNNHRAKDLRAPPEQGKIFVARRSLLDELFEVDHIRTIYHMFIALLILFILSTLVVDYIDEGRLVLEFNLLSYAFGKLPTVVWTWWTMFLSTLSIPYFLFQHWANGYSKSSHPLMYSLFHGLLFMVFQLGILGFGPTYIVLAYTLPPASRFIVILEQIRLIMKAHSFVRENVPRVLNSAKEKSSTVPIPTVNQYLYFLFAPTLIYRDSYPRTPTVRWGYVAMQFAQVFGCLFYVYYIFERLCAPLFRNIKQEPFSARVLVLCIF
Put plainly: Inhibition of ACAT in Japanese White rabbit liver microsomes. The arrangement: species or system Microsome.

Data set [3] can be described thus: Half life in Sprague-Dawley rat at 10 mg/kg, po. The format is ADME, organism-based. The arrangement: dose 10 mg/kg, route oral. The conditions noted are these: in vivo.
Data set [4] is described as follows: Cmax in Sprague-Dawley rat at 10 mg/kg, po. The format is ADME, organism-based. The arrangement: dose 10 mg/kg, route oral. The note with it: in vivo.
A short description of data set [5]: Tmax in Sprague-Dawley rat at 10 mg/kg, po. In kind it is ADME, organism-based. Details: dose 10 mg/kg, route oral. The conditions noted are these: in vivo.
Data set [6] can be described thus: AUC (0 to 24 hrs) in Sprague-Dawley rat at 10 mg/kg, po. The format is ADME, organism-based. The arrangement: time < 24 hr, dose 10 mg/kg, route oral. The conditions noted are these: plasma.
The nature of data set [7]: Protein binding in rat plasma assessed as total and protein free fraction concentration at 10 ug/ML after 150 mins by ultracentrifugation method. The format is ADME, cell-free. The note with it: read-out: PPB (converted).
In another data set the test system is Mus musculus. Put plainly: Inhibition of hepatic cholesterol secretion in ICR mouse at 10 mg/kg, po after 3 hrs by enzymatic method. The format is functional.
Data set [8] deals with THP-1. Put plainly: Anti-foam cell formation activity in human THP1 cells assessed as inhibition of esterified cholesterol accumulation after 24 hrs in presence of albumin. The format is functional.

As for `CCCCCCCCN1CCc2c(C)cc(C)c(NC(=O)C(C)(C)C)c21`, the pIC50 in the data set on THP-1 [1] is 6.54.

Take `CCCN1CCCc2c(C)c(NS(C)(=O)=O)c(C)c(NC(=O)C(C)(C)C)c21`: the pIC50 in [2] was 6.89; in the data set with THP-1 [1], 6.54.

As to `CCCCCCCCCCN1CCc2c(C)c(CC(=O)O)c(C)c(NC(=O)C(C)(C)C)c21`, the pIC50 was 6.04 in [2] and 6.01 in the data set with THP-1 [1].

`CCOCCN1CCc2c(C)c(NS(C)(=O)=O)c(C)c(NC(=O)C(C)(C)C)c21`: the results for the negative-log IC50 (pIC50) (in data set [2]; in the data set on THP-1 [1]) were 6.51 and 6.09, respectively.

As to `CCCCN1CCc2c(C)c(NS(C)(=O)=O)c(C)c(NC(=O)C(C)(C)CC)c21`, the pIC50 was 7.28 in data set [2] and 7.35 in the data set with THP-1 [1].

For the molecule `CCN1CCc2c(C)c(NS(C)(=O)=O)c(C)c(NC(=O)C(C)(C)C)c21`, in [3], the half-life is 2.59 h. Moreover, the highest concentration (Cmax) in data set [4] turned out to be 2900 ng/mL. Besides, in [5], the Tmax came out at 0.5 h. Further, in data set [6], the AUC(0-t) at 24 h is 10800 ng·h/mL.

For the molecule `CCCCCCCCN1CCc2c(C)c(CC(=O)O)c(C)c(NC(=O)C(C)(C)C)c21` [PACTIMIBE], in [3], the half-life was 7.37 h. Moreover, the fraction unbound at […], 10 ug/mL in data set [7] was 0.021. In addition, in data set [4], the peak concentration (Cmax) is 800 ng/mL. Also, in the data set with Mus musculus, the inhibition in vivo at 10 mg/kg worked out at 28%. For the same molecule, the Tmax in data set [5] was 0.67 h. Besides, the “fold change (FC)” value in the data set on THP-1 [8] was 10. The same molecule came in with an AUC(0-t) at 24 h in data set [6] of 2800 ng·h/mL.

`CCCCCCCCCCCN1CCc2c(C)c(CC(=O)O)c(C)c(NC(=O)C(C)(C)C)c21`: the negative-log IC50 (pIC50) in data set [2] was 6.02; with THP-1 [1], 6.07.

Regarding `COCCN1CCc2c(C)c(NS(C)(=O)=O)c(C)c(NC(=O)C(C)(C)C)c21`, the negative logarithm of the IC50 (pIC50) was 6.57 in data set [2] and 5.80 in the data set with THP-1 [1].

Consider `Cc1c2c(c(NC(=O)C(C)(C)C)c(C)c1NS(C)(=O)=O)N(C)CC2`, for which the pIC50 in data set [2] is 5.06; in the data set on THP-1 [1], 5.12.

Turning to `CCCCCCCCN1CCc2c(C)c(CC(=O)O)c(C)c(NC(=O)C(C)(C)C)c21`, the figures for the pIC50 (in data set [2]; in the data set on THP-1 [1]) were 5.64 and 5.70, respectively.

For `CCCCN1CCc2c(C)cc(C)c(NC(=O)C(C)(C)C)c21`, the results for the negative-log IC50 (pIC50) (in data set [2]; in the data set on THP-1 [1]) were 6.66 and 5.96, respectively.

The pIC50 is the negative decadic logarithm of the IC50, by convention in mol/L. The term half-life denotes the time in which the quantity being followed falls by half. Read a high half-life as slow loss. Broadly, the Cmax is the highest concentration seen after dosing. What is called Tmax is the time from dosing to the highest level. Usually AUC(0-t) stands for exposure summed from dosing to a finite time, without extrapolation to infinity. The low end stands for low exposure, the high end for high exposure. As usually defined, the inhibition in vivo is the percentage by which the read-out fell short of the control. A lower inhibition in vivo goes with a weak effect.
